We go through one molecule from PMC6338552 (Biochemistry, 2018).

This experiment deals with JNK1/TMR-JIPtide (Homo sapiens, UniProt P45983). The class given is binding. The following applies: relative to apo-JNK1.
Sequence of JNK1/TMR-JIPtide (P45983 1-384 isoform P45983-2, species assumed): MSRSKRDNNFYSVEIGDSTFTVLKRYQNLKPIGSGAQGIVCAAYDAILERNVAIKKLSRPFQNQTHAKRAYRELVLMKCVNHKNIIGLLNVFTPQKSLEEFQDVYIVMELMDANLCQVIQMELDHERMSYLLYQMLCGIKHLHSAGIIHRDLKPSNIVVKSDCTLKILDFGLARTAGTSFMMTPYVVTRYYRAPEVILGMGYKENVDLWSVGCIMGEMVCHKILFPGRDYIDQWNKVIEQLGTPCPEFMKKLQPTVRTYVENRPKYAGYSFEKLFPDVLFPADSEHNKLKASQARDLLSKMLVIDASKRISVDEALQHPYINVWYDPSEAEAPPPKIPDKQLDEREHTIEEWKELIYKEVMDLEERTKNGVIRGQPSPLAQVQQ

For `Nc1ncnc2c1ncn2[C@@H]1O[C@H](COP(=O)(O)OP(=O)(O)OP(=O)(O)O)[C@@H](O)[C@H]1O` [ATP, adenosine triphosphate], the “effect of ATP-binding site ligand on JNK1 affinity for JIPtide (in words)” value is “two-fold more tightly”.
